From patent US6294568A, “5-arylpyrrole derivatives” (priority 1997, dated 2001) come the findings set out here.

One series has as its system Brewer's Yeast Fever. Kind of series: Antipyretic Action Test With Respect To Brewer's Yeast Fever. It is filed as in vivo, rats. On the procedure: The antipyretic action was measured as described in the following. A sensor was inserted into the rectum of each rats and the body temperature of one hour after the insertion was recorded as the basal body temperature. The rats were injected subcutaneously with 2 ml/body of 20% brewer's yeast at the region of back and, 18 hours after the injection, the intrafebrile body temperatures were measured. Rats who had shown not less than 0.75° C. of body temperature elevation were selected to whom the test samples was administered orally. The body temperatures of the selected rats were measured every one hour for the following 5 hours. The dosage of each of the test samples was 10 mg/kg.

A further series is described as follows: Subcute Toxicity Test. Format: in vivo, SD rats. The settings on record: 100 mg/kg once daily for 14 days, male and female rats. On the procedure: The Subcute toxicity test was conducted as described in the following. SD rats (six each of male and female rats per group) were employed in the present test. The title compound (Preparation Example 1) was suspended in 0.5% methyl cellulose solution to be administered to the rats by a disposable feeding tube (manufactured by Fuchigami Kikai) once daily for 14 days. The dosage of the test samples was 100 mg/kg.

Another series can be described thus: Acute Toxicity Test. It is filed as in vivo, SD rats. On the procedure:
SD rats (3 rats per group) fasted overnight was employed in the present test. The title compound (Preparation Example 1) suspended in 1% methyl cellulose was administered to the rats. The test was conducted on the dosages of […]. […] It was indicted from the test result that the title compounds ensure the enhanced safety.

Consider `Cc1cc(-c2ccc(F)cc2)c(-c2ccc(S(C)(=O)=O)cc2)[nH]1` [Preparation Example 1, 4-(4-fluorophenyl)-2-methyl-5-(4-methylsulfonylphenyl)-1H-pyrrole], for which, in the series with Brewer's Yeast Fever (10 mg/kg oral, 1 hour after), the “Body temperature 1 Hour After” value worked out at 37.98 °C. Further, the “Body temperature 3 Hours After” value in the series with Brewer's Yeast Fever (10 mg/kg oral, 3 hours after) was determined as 37.10 °C. For the same molecule, in the series on Brewer's Yeast Fever (10 mg/kg oral, 5 hours after), the “Body temperature 5 Hours After” value worked out at 37.13 °C. Moreover, the “Intrafebrile Body Temperature” value with Brewer's Yeast Fever (18 hours after yeast injection, before administration, 10 mg/kg group) turned out to be 39.08 °C. Besides, the “Basal Body Temperature” value in the series on Brewer's Yeast Fever (one hour after sensor insertion, before yeast, 10 mg/kg group) worked out at 37.54 °C. Besides, the “general symptoms and weight increase” value in “Subcute Toxicity Test” is on record as “neither of a change in the general symptoms nor an adverse affect on the weight increase was noted”. Besides, the death entry in the series “Acute Toxicity Test” (500/kg, 1000/kg, 2000/kg, observed for a week) is given as “no death was noted in the test”. Also, in the series “Acute Toxicity Test” (rat, in vivo), the “general symptoms after administration” value was “an analgesic action was noted after the administration, and the rats recovered to the normal state in one hour”; the “weight and general symptoms after one week” value is “the weight increased favorably and no abnormality was noted in the general symptoms”.
